Test results: patent publication US12454564B2, “Compositions and methods for T cell engineering” (Gracell Biotechnologies (Shanghai) Co., Ltd., priority 2018, dated 2025)
Entries after “also recorded” stand apart in the source; their conditions may differ.

What was measured:
Assay in all cases: gRNA knockout efficiency
CD2 = format: cell-based
TCR = tested on: TCR
Description: (§1) For gene editing, 3 μg Cas9 protein and 1.5 μg gRNA were mixed in 20 μl and incubated at 37° C. or room temperature for 15 minutes to form ribonucleoprotein (RNP). Then RNP was transfected into T cells by Lonza 4D Nucleofector®. Gene knockout efficiency was determined by the ratio of the cells expressing the protein as detected by flow cytometry (FACS).
First, gRNA sequences targeting the exon of the TCR conserved region were designed at http://crispr.mit.edu, and two gRNA sequences with scores above 80 were selected for higher knockout efficiency. For the gRNA primer, the forward primer comprises a T7 promotor followed by 20 bp of the target sequence, and the reverse primer has 20 bp of the complementary sequence. Plasmids were used as PCR template. After purification, T7-PCR product was further used as the template for MEGAshortscript® T7 kit to obtain RNA. The RNA was purified with a MEGAclear® column and eluted with RNA-free water. Cas9 plasmid was purchased from Addgene.
Meanwhile, the knockout efficiency of the gRNA was analyzed by T7E1, TIDE and flow cytometry.
For gene editing, 3 μg Cas9 protein and 1.5 μg gRNA were mixed in 20 μl and incubated at 37° C. or room temperature for 15 minutes to form ribonucleoprotein (RNP). […] Gene knockout efficiency was determined by the ratio of the cells expressing the protein as detected by flow cytometry.

CD7 = settings: used together with TRAC-gRNA1
Description: as §1
For gene editing, 3 μg Cas9 protein and 1.5 μg gRNA were mixed in 20 μl and incubated at 37° C. or room temperature for 15 minutes to form ribonucleoprotein (RNP). Then RNP was transfected into T cells by Lonza 4D Nucleofector®. Gene knockout efficiency was determined by the ratio of the cells expressing the protein as detected by flow cytometry.

| Substance | CD7 knockout efficiency (CD7) | further results |
| --- | --- | --- |
| CD2 gRNA2: gRNA GTGCCACAAAGACCATCAAG (SEQ ID NO 30) (listed as DNA, chemistry not given here) |  | CD2 knockout efficiency (CD2): the highest CD2 knockout efficiencies |
| TRAC-gRNA2: gRNA TCAGGGTTCTGGATATCTGT (SEQ ID NO 21) (listed as DNA, chemistry not given here) |  | knockout efficiency for TCR (TCR): high knockout efficiencies |
| CD7-gRNA1: gRNA GAGGTCAATGTCTACGGCTC (SEQ ID NO 25) (listed as DNA, chemistry not given here) | high knockout efficiencies; also recorded: obviously better |  |
| CD7-gRNA4: gRNA GGAGCAGGTGATGTTGACGG (SEQ ID NO 28) (listed as DNA, chemistry not given here) | obviously better |  |
